Test results: ChEMBL document CHEMBL4004849, “Tetrazolylmethyl quinolines: Design, docking studies, synthesis, anticancer and antifungal analyses” (2017)
The source made the active and inactive calls. The calls are words filed in the database; no cut-off is given here.

Experiments:
Format in all cases: functional
[1] = tested on: Hs-578T; assay: Growth inhibition of human Hs 578T cells at 10^-5 M incubated for 48 hrs by sulforhodamine B assay relative to control
[2] = tested on: KM12; assay: Growth inhibition of human KM12 cells at 10^-5 M incubated for 48 hrs by sulforhodamine B assay relative to control
[3] = tested on: TK-10; assay: Growth inhibition of human TK10 cells at 10^-5 M incubated for 48 hrs by sulforhodamine B assay relative to control
[4] = tested on: MDA-MB-231; assay: Growth inhibition of human MDA-MB-231/ATCC cells at 10^-5 M incubated for 48 hrs by sulforhodamine B assay relative to control
[5] = tested on: OVCAR-4; assay: Growth inhibition of human OVCAR4 cells at 10^-5 M incubated for 48 hrs by sulforhodamine B assay relative to control
[6] = tested on: 786-0; assay: Growth inhibition of human 786-0 cells at 10^-5 M incubated for 48 hrs by sulforhodamine B assay relative to control
[7] = tested on: SNB-75; assay: Growth inhibition of human SNB75 cells at 10^-5 M incubated for 48 hrs by sulforhodamine B assay relative to control
[8] = tested on: EKVX; assay: Growth inhibition of human EKVX cells at 10^-5 M incubated for 48 hrs by sulforhodamine B assay relative to control
[9] = tested on: LOX IMVI; assay: Growth inhibition of human LOXIMVI cells at 10^-5 M incubated for 48 hrs by sulforhodamine B assay relative to control
[10] = tested on: SF-295; assay: Growth inhibition of human SF295 cells at 10^-5 M incubated for 48 hrs by sulforhodamine B assay relative to control
[11] = tested on: Aspergillus fumigatus; assay: Antifungal activity against Aspergillus fumigatus at 100 ug/ml by disc diffusion method; conditions: read-out: IZ
[12] = tested on: ACHN; assay: Growth inhibition of human ACHN cells at 10^-5 M incubated for 48 hrs by sulforhodamine B assay relative to control
[13] = tested on: SF-539; assay: Growth inhibition of human SF539 cells at 10^-5 M incubated for 48 hrs by sulforhodamine B assay relative to control

SMILES: Fc1ccc2nc(Cl)c(Cn3nnc(CSc4ccccc4)n3)cc2c1
- growth inhibition (GI) [1]: Active
- growth inhibition (GI) [2]: Active
- growth inhibition (GI) [3]: Active
- growth inhibition (GI) [4]: Active
- growth inhibition (GI) [5]: Active
- growth inhibition (GI) [6]: Active
- growth inhibition (GI) [7]: Active
- growth inhibition (GI) [8]: Active
- growth inhibition (GI) [9]: Active
- growth inhibition (GI) [10]: Active
- zone of inhibition at 100 µg/mL [11]: 13 mm
- growth inhibition (GI) [12]: Active
- growth inhibition (GI) [13]: Active
